Reference: patent US9927437B2, “Treating neurodegenerative disease” (THE BRIGHAM AND WOMEN'S HOSPITAL, INC., priority 2013, dated 2018)

Test system: primary astrocytes
Assay: Activation of cultured primary astrocytes, mRNA expression
Type: cell-based, mouse
Settings: for transcriptional response of astrocytes to LPS/IFNγ: 1 h pre-treatment (PDMP 25 μM; LacCer 10 μM), LPS 100 ng/ml and IFNγ 100 Units/ml, 6 h
Description: FIGS. 3a-m. LacCer produced by B4GALT6 acts in an autocrine manner to boost astrocyte activation. Cultured astrocytes were pre-treated for 1 h with PDMP (25 μM), LacCer (10 μM), both (LacCer+PDMP), or vehicle (vehicle), followed by activation with lipopolysaccharide (100 ng/ml) and Interferon-γ (100 Units/ml) (LPS/IFNγ) or left un-treated (control). (a) Heatmap depicting mRNA expression, as detected by Nanostring nCounter analysis, in astrocytes stimulated with LPS/IFNγ. Representative data of three independent experiments. (b) Histogram presentation of the normalized gene expression presented in (a), statistical analysis by one-way ANOVA followed by Tukey post-hoc analysis. (c-i) The expression of B4galt5 (shB4galt5), B4galt6 (shB4galt6) or non-targeting shRNA (ShControl) in C8-D30 astrocytes was knocked-down using verified shRNA (n≥4). (c) qRT analysis of B4galt5 and B4galt6 mRNA expression. (d-f) astrocytes were activated as in (a) and mRNA expression for (d) H2-Aa, (e) Ccl5 and (f) Cxcl10 was determined; expression is presented relative to house keeping gene (Gapdh) (n≥4). (g) Schematic map of the astrocyte-specific shRNA lentiviral vector. […] NOD mice were injected i.c.v. with 1×10^7 IU of shControl, shB4galt5 or shB4galt6 lentivirus, at day 35 after EAE induction (progressive phase). n=10 mice per group (h, i) 10 days after i.c.v. injection experiment was terminated and (h) b4galt5 and b4galt6 expression levels were determined by qPCR in astrocytes isolated from naïve or EAE NOD mice; expression normalized to gapdh and presented relative to that of cells from naïve mice. Representative data of two independent experiments, Statistical analysis by one-way ANOVA, followed by Tukey post-hoc analysis. (i) LacCer levels were quantified of in the CNS of naïve or EAE NOD mice treated as shown in (j). Statistical analysis by one-way ANOVA, followed by Tukey post-hoc analysis. (j) EAE clinical scores. Representative data of two independent experiments. Statistical analysis as in (FIG. 1a). (k) Cultured primary astrocytes were pre-treated for 1 h with PDMP (25 μM), LacCer (10 μM), both (LacCer+PDMP), or vehicle control (vehicle), followed by activation with LPS/IFNγ for 45 min, or left un-treated (control, Con). IRF-1 and Lamin B expression in the nuclear fraction analyzed by western blot and the degree of IRF-1 translocation to the nucleus was assessed by the ratio between the expression of IRF-1 and Lamin-B in the nuclear fractions following densitometric quantification on four independent experiments (right panel). Statistical analysis by one-way ANOVA, followed by Tukey post-hoc analysis. (l) ChIP analysis of the interaction of NF-κB, and IRF-1 with the) nos2 promoter in primary cultured astrocytes. Experimental design and data analysis as in (FIG. 4c). Data from two independent experiments (m) qPCR analysis of the expression of nos2, csf2, ccl2, ccl5, il6, and tlr2 in astrocyte cultures established from WT or IRF-1 deficient (IRF-1 KO) mice, pre-treated with LacCer or vehicle, and activated with LPS/IFNγ. […]
FIGS. 14a-g. […] (a) Cultured astrocytes were pre-treated for 1 h with PDMP (25 μM), LacCer (10 μM), both (LacCer+PDMP), or vehicle control (vehicle), followed by activation with LPS/IFNγ for 6 h, or left un-treated (control, Con). mRNA expression was analyzed 6 h following activation. qPCR analysis of the expression of cc/5, csf2, nos2, il6, H2-Aa, and tlr2 presented relative to gapdh. […]

| Compound | transcriptional response of astrocytes to LPS/IFNγ | h2-Aa, ccl5 and cxcl10 expression in B4GALT6 knocked-down astrocytes (astrocytes with shB4galt6, PDMP pre-treatment, LPS/IFNγ 6 h) | astrocyte activation, LacCer added to PDMP (LacCer 10 μM + PDMP 25 μM, LPS/IFNγ) |
| --- | --- | --- | --- |
| CCCCCCCCCC(=O)N[C@H](CN1CCOCC1)[C@H](O)c1ccccc1 [PDMP, D-threo-1-phenyl-2-decanoylamino-3-morpholino-1-propanol] | suppressed the transcriptional response | did not further suppress |  |
| lactosylceramide [LacCer] | boosted the response |  | overcame the suppressive effects of PDMP |
